Source: ChEMBL document CHEMBL3600376, “Antibacterial activity of diketopiperazines isolated from a marine fungus using t-butoxycarbonyl group as a simple tool for purification” (2015)
≈ marks a conversion by molar mass, not a printed value.

Legend:
Assay type in all cases: functional
Bacillus subtilis = assay: Antibacterial activity against Bacillus subtilis NCTC 2116 after 18 hrs by agar diffusion method; details: NCTC 2116, 18 h
Staphylococcus aureus = assay: Antibacterial activity against Staphylococcus aureus ATCC 25923 after 18 hrs by agar diffusion method; details: ATCC 25923, 18 h
Escherichia coli = assay: Antibacterial activity against Escherichia coli ATCC 25922 after 18 hrs by agar diffusion method; details: ATCC 25922, 18 h

| Structure (SMILES) | MIC (Bacillus subtilis) [µg/mL] | MIC (Staphylococcus aureus) [µg/mL] | MIC (Escherichia coli) [µg/mL] |
| --- | --- | --- | --- |
| O=C1N[C@@H](Cc2ccc(O)cc2)C(=O)N2CCC[C@@H]12 | 8.7 (≈ 33.4 µM) | 10.2 (≈ 39.2 µM) | > 20 |
| COc1ccc2c3c(n(C(=O)OC(C)(C)C)c2c1)[C@H](C=C(C)C)N1C(=O)[C@@H]2CCCN2C(=O)[C@@H]1C3 | 3.3 (≈ 6.88 µM) | 2.8 (≈ 5.84 µM) | 16.4 (≈ 34.2 µM) |
| CC(C)=CCc1c(C[C@H]2C(=O)N3CCC[C@H]3C(=O)N2C(=O)OC(C)(C)C)c2ccccc2n1C(=O)OC(C)(C)C | 2.1 (≈ 3.81 µM) | 2.2 (≈ 3.99 µM) | 19 (≈ 34.4 µM) |
| CC(C)(C)OC(=O)n1cc(C[C@@H]2NC(=O)[C@@H]3CCCN3C2=O)c2ccccc21 | 6.7 (≈ 17.5 µM) | 8.9 (≈ 23.2 µM) | > 20 |
| CCC(C)[C@@H]1NC(=O)[C@@H]2CCCN2C1=O (stereo partly specified) | 15.8 (≈ 75.1 µM) | 17.1 (≈ 81.3 µM) | > 20 |
| CC(C)[C@@H]1NC(=O)[C@H]2CCCN2C1=O | 16 (≈ 81.5 µM) | 15.6 (≈ 79.5 µM) | 18.5 (≈ 94.3 µM) |
| CC(C)[C@@H]1NC(=O)[C@@H]2CCCN2C1=O | 18.2 (≈ 92.7 µM) | 16.3 (≈ 83.1 µM) | > 20 |
| CC(C)C[C@@H]1NC(=O)[C@@H]2CCCN2C1=O | 15.7 (≈ 74.7 µM) | 18.8 (≈ 89.4 µM) | > 20 |
| O=C1N[C@@H](Cc2ccccc2)C(=O)N2CCC[C@@H]12 | 17.2 (≈ 70.4 µM) | 15.1 (≈ 61.8 µM) | > 20 |
| CC1(C)S[C@@H]2[C@H](NC(=O)[C@H](N)c3ccc(O)cc3)C(=O)N2[C@H]1C(=O)O [AMOXICILLIN] | 0.03 (≈ 0.0821 µM) | 0.05 (≈ 0.137 µM) | 0.8 (≈ 2.19 µM) |
| O=C1N[C@@H](Cc2c[nH]c3ccccc23)C(=O)N2CCC[C@@H]12 [BREVIANAMIDE F] | 11.9 (≈ 42 µM) | 12.6 (≈ 44.5 µM) | > 20 |
| CN(C)[C@@H]1C(O)=C(C(N)=O)C(=O)[C@@]2(O)C(O)=C3C(=O)c4c(O)cccc4[C@@](C)(O)[C@H]3C[C@@H]12 [TETRACYCLINE] | 1.2 (≈ 2.7 µM) | 1.5 (≈ 3.38 µM) | 3.9 (≈ 8.78 µM) |
